For the assay, the target named is T1, Human HPK1, catalytic domain (Homo sapiens, UniProt Q92918).
T1 sequence (Q92918 1-346): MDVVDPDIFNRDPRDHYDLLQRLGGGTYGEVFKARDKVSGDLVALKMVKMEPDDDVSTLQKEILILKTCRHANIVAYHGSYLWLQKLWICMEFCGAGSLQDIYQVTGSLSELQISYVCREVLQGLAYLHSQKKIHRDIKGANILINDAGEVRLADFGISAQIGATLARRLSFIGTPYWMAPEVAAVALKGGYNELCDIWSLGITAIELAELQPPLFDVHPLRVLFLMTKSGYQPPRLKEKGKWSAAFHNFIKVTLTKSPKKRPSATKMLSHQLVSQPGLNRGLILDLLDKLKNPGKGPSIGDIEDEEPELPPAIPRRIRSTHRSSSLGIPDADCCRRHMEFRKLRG
The assay is described as follows: HPK1-SLP76 TR-FRET Assay. The assay is classed as biochemical. The conditions noted are these: 75 pM HPK1, ATP 10 uM, SLP76 10 nM, 30 min pre-incubation, 60 min reaction.

pIC50: −log10 of the molar value.

In general, pIC50 refers to the negative decadic logarithm of the IC50, by convention in mol/L. Low readings indicate a high IC50, high ones a low IC50. `COc1cc2c(cc1Nc1ncc3ccc(N4CC5(CCCNCC5)OC4=O)cc3n1)CN(C)CC2` (racemic) [Compound 3-8, (S and R)-3-{2-[(6-methoxy-2-methyl-1,2,3,4-tetrahydroiso-quinolin-7-yl)amino]quinazolin-7-yl}-1-oxa-3,8-diazaspiro[4.6]-undecan-2-one] showed a negative-log IC50 (pIC50) of 7.03.
Regarding `Cc1c(-c2cc3nc(Nc4ccc5c(c4)CCN(C)C5)ncc3c(N)c2F)cnc2c1NCCO2` [Compound 2-158, 6-fluoro-7-(8-methyl-2,3-dihydro-1H-pyrido[2,3-b][1,4]oxazin-7-yl)-N~2~- (2-methyl-1,2,3,4-tetrahydroisoquinolin-6-yl)quinazoline-2,5-diamine], the pIC50 was 10.60. Compared with the last compound, the pIC50 is 3.57 log units higher.
Regarding `COc1cc2c(cc1Nc1ncc3ccc(Nc4cccc(C(=O)N(C)C)c4)cc3n1)CN(C)CC2` [Compound 3-34, 3-({2-[(6-methoxy-2-methyl-1,2,3,4-tetrahydroisoquinolin-7-yl)amino]quinazolin-7-yl}-amino)-N,N-dimethylbenzamide], the negative-log IC50 (pIC50) was 7.09.
`COc1cc2c(cc1Nc1ncc3ccc(-c4cccc(C(=O)NCCN5CCCC5)c4)cc3n1)CNCC2` [Compound 1-83, 3-{2-[(6-methoxy-1,2,3,4-tetrahydroisoquinolin-7-yl)amino]quinazolin-7-yl}-N-[2-(pyrrolidin-1-yl)ethyl]benzamide] gave a pIC50 of 6.65.
The compound `COc1cc2c(cc1Nc1ncc3ccc(-c4cnn(CC(C)O)c4)cc3n1)CN(C)CC2` (racemic) [Compound 1-102, (R and S)-1-(4-{2-[(6-methoxy-2-methyl-1,2,3,4-tetrahydroisoquinolin-7-yl)amino]quinazolin-7-yl}-1H-pyrazol-1-yl)propan-2-ol] gave a negative logarithm of the IC50 (pIC50) of 7.65.
On to `COc1cc2c(cc1Nc1ncc3ccc(-c4cccc(C5CCC(=O)N5)c4)cc3n1)CN(C)CC2` (racemic) [Compound 1-99, (R and S)-5-(3-{2-[(6-methoxy-2-methyl-1,2,3,4-tetrahydroisoquinolin-7-yl)amino]quinazolin-7-yl}phenyl)pyrrolidin-2-one], for which the pIC50 was 6.92. Compared with the last compound, the pIC50 is 0.73 log units lower.
For the compound `COc1cc2c(cc1Nc1ncc3ccc(NCc4cnsn4)cc3n1)CN(C)CC2` [Compound 3-63, N~2~-(6-methoxy-2-methyl-1,2,3,4-tetrahydroisoquinolin-7-yl)-N~7-[(1,2,5-thiadiazol-3-yl)-methyl]quinazoline-2,7-diamine], the pIC50 was 7.42.
Take `CCNC(=O)c1ccc(-c2ccc3cnc(Nc4cc5c(cc4OC)CCN(C)C5)nc3c2)cn1` [Compound 1-23, N-ethyl-5-{2-[(6-methoxy-2-methyl-1,2,3,4-tetrahydroisoquinolin-7-yl)amino]quinazolin-7-yl}pyridine-2-carboxamide]: the pIC50 is 6.16.
For `CNC(=O)C1(c2ccc(Nc3ncc4c(N)c(F)c(-c5cnc6c(c5C)NCCO6)cc4n3)cc2)CCC1` [Compound 2-82, 1-(4-((5-amino-6-fluoro-7-(8-methyl-2,3-dihydro-1H-pyrido[2,3-b][1,4]oxazin-7-yl)quinazolin-2-yl)amino)phenyl)-N-methylcyclobutane-1-carboxamide], the negative logarithm of the IC50 (pIC50) was 10.51.
On to `COc1cc2c(cc1Nc1ncc3ccc(-c4cncc(NS(C)(=O)=O)c4)cc3n1)CNCC2` [Compound 1-37, N-(5-{2-[(6-methoxy-1,2,3,4-tetrahydroisoquinolin-7-yl)amino]quinazolin-7-yl}pyridin-3-yl)methanesulfonamide], for which the negative logarithm of the IC50 (pIC50) was 7.55.
Turning to `Cc1c(-c2cc3nc(Nc4ccc5c(c4)CN(C)C(C)C5)ncc3c(N)c2F)cnc2c1NCCO2` (single isomer, unassigned) [Compound 2-86, (R or S)—N2-(2,3-dimethyl-1,2,3,4-tetrahydroisoquinolin-7-yl)-6-fluoro-7-(8-methyl-2,3-dihydro-1H-pyrido[2,3-b][1,4]oxazin-7-yl)quinazoline-2,5-diamine], the negative logarithm of the IC50 (pIC50) was 10.42.
On to `Cc1ccc(F)cc1-c1cc2nc(Nc3ccc4c(c3)CN(C)CC4)ncc2c(N)c1F` [Compound 2-174, 6-fluoro-7-(5-fluoro-2-methylphenyl)-N~2~-(2-methyl-1,2,3,4-tetrahydroisoquinolin-7-yl)quinazoline-2,5-diamine], for which the pIC50 was 7.94.
The compound `COc1cc2c(cc1Nc1ncc3c(N)c(F)c(-c4cnc5c(c4C)NCCO5)c(Cl)c3n1)CN(C)CC2(C)C` [Compound 2-104, 8-chloro-6-fluoro-N2-(6-methoxy-2,4,4-trimethyl-1,2,3,4-tetrahydroisoquinolin-7-yl)-7-(8-methyl-2,3-dihydro-1H-pyrido[2,3-b][1,4]oxazin-7-yl)quinazoline-2,5-diamine] had a pIC50 of 9.10.
As to `CC(=O)NCc1ccc(Nc2ncc3c(N)c(F)c(-c4cnc5c(c4C)NCCO5)cc3n2)cc1` [Compound 2-30, N-[(4-{[5-amino-6-fluoro-7-(8-methyl-2,3-dihydro-1H-pyrido[2,3-b][1,4]oxazin-7-yl)quinazolin-2-yl]amino}phenyl)methyl] acetamide], the negative-log IC50 (pIC50) is 10.09. Against the preceding compound, the pIC50 is 0.99 log units higher.
The same measure for `COc1cc2c(cc1Nc1ncc3ccc(-c4cccc(C(C)=O)c4)cc3n1)CNCC2` [Compound 1-66, 1-(3-{2-[(6-methoxy-1,2,3,4-tetrahydroisoquinolin-7-yl)amino]quinazolin-7-yl}phenyl)ethan-1-one]: 6.88.
For `Cc1c(-c2cc3nc(Nc4ccc(C5(S(C)(=O)=O)CC5)cc4)ncc3c(N)c2F)cnc2c1NCCO2` [Compound 2-148, 6-fluoro-N~2~-{4-[1-(methanesulfonyl)cyclo-propyl]phenyl}-7-(8-methyl-2,3-dihydro-1H-pyrido[2,3-b][1,4]oxazin-7-yl)quinazoline-2,5-diamine], the pIC50 is 10.08.
`COc1cc2c(cc1Nc1ncc3ccc(-c4ccn5ncnc5c4)cc3n1)CN(C)CC2` [Compound 1-16, N-(6-methoxy-2-methyl-1,2,3,4-tetrahydroisoquinolin-7-yl)-7-([1,2,4]triazolo[1,5-a]pyridin-7-yl)quinazolin-2-amine] gave a pIC50 of 6.81.
In the case of `COc1cc2c(cc1Nc1ncc3ccc(Nc4cccc(CO)n4)cc3n1)CN(C)CC2` [Compound 3-29, [6-({2-[(6-methoxy-2-methyl-1,2,3,4-tetrahydroisoquinolin-7-yl)amino]quinazolin-7-yl}-amino)pyridin-2-yl]methanol], the pIC50 was 7.69. Against the preceding compound, the pIC50 is 0.88 log units higher.
Take `COc1cc2c(cc1Nc1ncc3ccc(N4CC(CO)OC4=O)cc3n1)CN(C)CC2` (racemic) [Compound 3-4, (S and R)-5-(hydroxymethyl)-3-{2-[(6-methoxy-2-methyl-1,2,3,4-tetrahydroisoquinolin-7-yl)amino]quinazolin-7-yl}-1,3-oxazolidin-2-one]: the negative-log IC50 (pIC50) is 8.03.
With `COc1cc2c(cc1Nc1ncc3ccc(-c4ccc5c(c4)C(=O)N(CC4CC4)C5)cc3n1)CNCC2` [Compound 1-68, 2-(cyclopropylmethyl)-6-{2-[(6-methoxy-1,2,3,4-tetrahydroisoquinolin-7-yl)amino]quinazolin-7-yl}-2,3-dihydro-1H-isoindol-1-one] the figure was 6.79.
With `COc1cc2c(cc1Nc1ncc3ccc(Oc4ccc(N5CCN(C(C)=O)CC5)cc4)cc3n1)CN(C)CC2` [Compound 4-7, 1-{4-[4-({2-[(6-methoxy-2-methyl-1,2,3,4-tetrahydro-isoquinolin-7-yl)amino]-quinazolin-7-yl}oxy)phen-yl]piperazin-1-yl}ethan-1-one] the figure was 6.65.
The same measure for `CC(=O)N1CCCC1c1ccc(Nc2ncc3c(N)c(F)c(-c4cnc5c(c4C)NCCO5)cc3n2)cc1` (single isomer, unassigned) [Compound 2-29, (R or S)-1-[2-(4-{[5-amino-6-fluoro-7-(8-methyl-2,3-dihydro-1H-pyrido[2,3-b][1,4]oxazin-7-yl)quinazolin-2-yl]amino}phenyl)pyrrolidin-1-yl]ethan-1-one]: 9.56.
`COc1nc(C2(C#N)CC2)ccc1Nc1ncc2c(N)c(F)c(-c3cnc4c(c3C)NCCO4)c(Cl)c2n1` [Compound 2-181, (+ or −)-1-(5-{[5-amino-8-chloro-6-fluoro-7-(8-methyl-2,3-dihydro-1H-pyrido[2,3-b][1,4]oxazin-7-yl)quinazolin-2-ylamino}-6-methoxypyridin-2-yl)cyclopropane-1-carbonitrile] gave a negative-log IC50 (pIC50) of 7.00.
`COc1cc(C2CCN(C)C2=O)ccc1Nc1ncc2c(N)c(F)c(-c3cnc4c(c3C)NCCO4)cc2n1` (single isomer, unassigned) [Compound 2-57, (R or S)-3-(4-{[5-amino-6-fluoro-7-(8-methyl-2,3-dihydro-1H-pyrido[2,3-b][1,4]oxazin-7-ylquinazolin-2-yl]amino}-3-methoxyphenyl)-1-methylpyrrolidin-2-one] had a pIC50 of 9.04.
With `CCC1COC(=O)N1c1ccc2cnc(Nc3cc4c(cc3OC)CCN(C)C4)nc2c1` (single isomer, unassigned) [Compound 3-13, (S or R)-4-ethyl-3-{2-[(6-methoxy-2-methyl-1,2,3,4-tetrahydroisoquinolin-7-yl)amino]quinazolin-7-yl}-1,3-oxazolidin-2-one] the figure was 8.98; with `COc1ccc(Nc2ncc3c(N)c(F)c(-c4cnc5c(c4C)NCCO5)cc3n2)c(C)n1` [Compound 2-77, 6-fluoro-N~2~-(6-methoxy-2-methylpyridin-3-yl)-7-(8-methyl-2,3-dihydro-1H-pyrido[2,3-b][1,4]oxazin-7-yl)quinazoline-2,5-diamine], 9.11; with `COc1cc2c(cc1Nc1ncc3ccc(NCc4ccc5c(c4)C(=O)NC5)cc3n1)CN(C)CC2` [Compound 3-28, 6-[({2-[(6-methoxy-2-methyl-1,2,3,4-tetrahydroisoquinolin-7-yl)amino]quinazolin-7-yl}-amino)methyl]-2,3-dihydro-1H-isoindol-1-one], 7.29.

(Values after patent US20230399341A1, “7-PHENYL SUBSTITUTED 2-AMINOQUINAZOLINE INHIBITORS OF HPK1” (MERCK SHARP & DOHME LLC, priority 2020, published 2023).)
